In brackets after ≈: the same amount, converted by molar mass. Like-named read-outs stand apart in the source and are kept apart here.
How the values were obtained:
[1] = system: MRSA COL (NRS100); assay: MIC, broth micro-dilution technique (CLSI); type: cell-based, Staphylococcus aureus; conditions: Staphylococcus aureus, 22 h, read-out: MIC (μg/mL) (COL)
How it was run: (§1)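 Cation-adjusted MHB + 0.002% Tween-80; 10-point 2-fold series starting 64 μg/ml (modified protocol: 4 μg/mL). Final inoculum OD600 0.0005; 35° C, 22 h. MIC per CLSI M07-A8 broth microdilution.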

[2] = system: MRSA strain COL; assay: Neutropenic thigh infection model, intravenous infusion; type: in vivo, CD-1 mice; conditions: Compound 115 (Css 2 or 6.4 ug/mL) co-dosed with imipenem (Css 0.3 μg/mL), infused 23 hours; 24 hours post infection; compared with either single agent; FIG. 3
Protocol: Jugular vein cannulated CD-1 mice were subjected to induced neutropenia (<100 cells/mm^3) by injecting 150 mg/kg and 100 mg/kg cyclophosphamide at day −5 and day −2 respectively. At day −1, saline was infused at […] for 12 hours using Harvard Apparatus PHD 2000 Infusion pumps. At day 0, mice were infected in the thigh muscle with MRSA strain COL 4×10^5 CFU/50 μL. Four test groups and one vehicle group began dosing at 1 hour post infection:
Group 1 was the vehicle control (3% HP-beta-cyclodextrin in PBS)
Group 2 was the imipenem (Imp) group dosed at a concentration of 0.21 mg/mL solution, infused at 80 μL/hour for 23 hours, with a target steady-state concentration (Css) of 0.3 μg/mL.
Group 3 was the SpsB inhibitor Compound 115 group dosed at a concentration of 2.14 mg/mL solution, infused at 80 μL/hour for 23 hours to achieve a steady state concentration (Css) of 6.4 ug/mL.
Group 4 was the SpsB inhibitor Compound 115 group dosed at 0.67 mg/mL solution (Css 2 ug/mL) co-dosed with imipenem at a concentration of 0.21 mg/mL (Css of 0.3 μg/mL) infused at 80 μL/hour for 23 hours. […]
At 24 hours post infection, bacterial burden in the thigh muscle was determined by plating the tissue homogenate in series dilutions on blood agar plates. […]

[3] = system: Escherichia coli MC4100 harboring the IMP4213; assay: MIC, broth micro-dilution technique (CLSI); type: cell-based; conditions: Escherichia coli, 22 h
How it was run: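 CLSI broth microdilution in cation-adjusted Mueller Hinton broth with 0.002% Tween-80. Ten 2-fold dilutions started from 64 μg/ml, or from 4 μg/mL in the modified protocol. Inoculum at final OD600 0.0005; MIC read after 22 h at 35 °C. E. coli strain carries imp4213 (increased outer-membrane permeability).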

[4] = system: Methicillin Resistant Staphylococcus aureus strain USA 300 (NRS384); assay: MIC, broth micro-dilution technique (CLSI); type: cell-based; conditions: Staphylococcus aureus, 22 h, read-out: MIC (μg/mL) S. aureus
How it was run: as §1

[5] = read-out: MIC (μg/mL) E. coli, Table 1 protocol: serial 2-fold dilutions starting from 64 μg/ml, 35° C., 22 hours
[6] = read-out: MIC (μg/mL) E. coli, Table 2 modified protocol: serial 2-fold dilutions starting from 4 μg/mL, 35° C., 22 hours
[7] = Table 1 protocol: serial 2-fold dilutions starting from 64 μg/ml, 35° C., 22 hours
[8] = Table 2 modified protocol: serial 2-fold dilutions starting from 4 μg/mL, 35° C., 22 hours

SMILES	MIC [1]	MIC [4]	MIC [3, 6]	also measured
CCCCCCCCCCNCCC(=O)N[C@@H](CCCCN)C(=O)N(C)[C@@H]1C(=O)N[C@@H](C)C(=O)N[C@H](C(=O)N[C@@H](C)C(C)=O)Cc2ccc(O)c(c2)-c2cc1ccc2OCCN [Compound 115]	0.13 µg/mL (≈ 0.15 µM)	0.63 µg/mL (≈ 0.728 µM)		bacterial burden in the thigh muscle [2]: greater reduction in bacterial burden; MIC [3, 5]: 19 µg/mL (≈ 22 µM)
CCCCc1ccc(-c2ccc(C(=O)N[C@@H](CCCCN)C(=O)N(C)[C@@H]3C(=O)N[C@@H](C)C(=O)N[C@H](C(=O)NCc4nnn[nH]4)Cc4ccc(OCCN)c(c4)-c4cc3ccc4OCCN)cc2)cc1 [Compound 328]	0.5 µg/mL (≈ 0.529 µM)	2 µg/mL (≈ 2.12 µM)		MIC ([3]; read-out: MIC (μg/mL) E. coli): 0.25 µg/mL (≈ 0.265 µM)
CCCCc1ccc(-c2ccc(C(=O)N[C@@H](CCCCN)C(=O)N(C)[C@@H]3C(=O)N[C@@H](C)C(=O)N[C@H](C(=O)NCc4nnn[nH]4)Cc4ccc(O)c(c4)-c4cc3ccc4OCCN)cc2)cc1 [Compound 329]	2 µg/mL (≈ 2.22 µM)	> 4 µg/mL		MIC ([3]; read-out: MIC (μg/mL) E. coli): 0.38 µg/mL (≈ 0.421 µM)
CC(=O)[C@H](C)NC(=O)[C@@H]1Cc2ccc(OCCO)c(c2)-c2cc(ccc2OCCN)[C@H](N(C)C(=O)[C@H](CCCCN)NC(=O)c2ccc(-c3ccc(Cl)cc3)cc2)C(=O)N[C@@H](C)C(=O)N1 [Compound 330]	1 µg/mL (≈ 1.1 µM)	3 µg/mL (≈ 3.29 µM)	> 4 µg/mL	
CC(=O)[C@H](C)NC(=O)[C@@H]1Cc2ccc(O)c(c2)-c2cc(ccc2OCCn2ccnc2)[C@H](N(C)C(=O)[C@H](CCCCN)NC(=O)c2ccc(-c3ccc(Cl)cc3)cc2)C(=O)N[C@@H](C)C(=O)N1 [Compound 331]				MIC [1, 7]: 2 µg/mL (≈ 2.18 µM); MIC [3, 5]: 8 µg/mL (≈ 8.7 µM); MIC [4, 7]: 16 µg/mL (≈ 17.4 µM)
CC(=O)[C@H](C)NC(=O)[C@@H]1Cc2ccc(O)c(c2)-c2cc(ccc2OCCN2CCN(C)CC2)[C@H](N(C)C(=O)[C@H](CCCCN)NC(=O)c2ccc(-c3ccc(Cl)cc3)cc2)C(=O)N[C@@H](C)C(=O)N1 [Compound 332]				MIC [1, 7]: 8 µg/mL (≈ 8.41 µM); MIC [3, 5]: 64 µg/mL (≈ 67.3 µM); MIC [4, 7]: 64 µg/mL (≈ 67.3 µM)
C[C@@H]1NC(=O)[C@@H](N(C)C(=O)[C@H](CCCCN)NC(=O)c2ccc(-c3ccc(Cl)cc3)cc2)c2ccc(O)c(c2)-c2cc(ccc2O)C[C@@H](C(=O)N[C@@H](C)C(=O)N(C)c2cc[nH]n2)NC1=O [Compound 333]				MIC [1, 7]: 16 µg/mL (≈ 17.7 µM); MIC [3, 5]: 32 µg/mL (≈ 35.3 µM); MIC [4, 7]: 64 µg/mL (≈ 70.6 µM)
CCCCc1ccc(-c2ccc(C(=O)N[C@@H](CCCN)C(=O)N(C)[C@@H]3C(=O)N[C@@H](C)C(=O)N[C@H](C(=O)NCC(=O)O)Cc4ccc(OCCN)c(c4)-c4cc3ccc4OCCN)cc2)cc1 [Compound 334]			0.13 µg/mL (≈ 0.143 µM)	MIC [1, 8]: 0.38 µg/mL (≈ 0.419 µM); MIC [4, 8]: 1 µg/mL (≈ 1.1 µM)
CCCCc1ccc(-c2ccc(C(=O)N[C@@H](CCCN)C(=O)N(C)[C@@H]3C(=O)N[C@@H](C)C(=O)N[C@H](C(N)=O)Cc4ccc(OCCN)c(c4)-c4cc3ccc4OCCN)cc2)cc1 [Compound 335]	0.063 µg/mL (≈ 0.0742 µM)	0.19 µg/mL (≈ 0.224 µM)	0.13 µg/mL (≈ 0.153 µM)	
CCCCc1ccc(-c2ccc(C(=O)N[C@@H](CCCN)C(=O)N(C)[C@@H]3C(=O)N[C@@H](C)C(=O)N[C@H](CO)Cc4ccc(OCCN)c(c4)-c4cc3ccc4OCCN)cc2)cc1 [Compound 336]	0.13 µg/mL (≈ 0.155 µM)	0.5 µg/mL (≈ 0.598 µM)	0.25 µg/mL (≈ 0.299 µM)	
CCCCc1ccc(-c2ccc(C(=O)N[C@@H](CCCN)C(=O)N(C)[C@@H]3C(=O)N[C@@H](C)C(=O)N[C@H](C(=O)NS(C)(=O)=O)Cc4ccc(OCCN)c(c4)-c4cc3ccc4OCCN)cc2)cc1 [Compound 337]	0.75 µg/mL (≈ 0.809 µM)	2 µg/mL (≈ 2.16 µM)	0.047 µg/mL (≈ 0.0507 µM)	
CCCCc1ccc(-c2ccc(C(=O)N[C@@H](CCCN)C(=O)N(C)[C@@H]3C(=O)N[C@@H](C)C(=O)N[C@H](C(=O)NS(=O)(=O)C(F)(F)F)Cc4ccc(OCCN)c(c4)-c4cc3ccc4OCCN)cc2)cc1 [Compound 338]			0.63 µg/mL (≈ 0.642 µM)	MIC [1, 8]: 2.5 µg/mL (≈ 2.55 µM); MIC [4, 8]: 3 µg/mL (≈ 3.06 µM)
CCCCCCCCCCNCCC(=O)N[C@@H](CCCCN)C(=O)N(C)[C@@H]1C(=O)N[C@@H](C)C(=O)N[C@H](C(=O)N[C@@H](C)C(C)=O)Cc2ccc(O)c(c2)-c2cc1ccc2OC1O[C@H](CO)[C@@H](O)[C@H](O)[C@H]1N (stereo partly shown) [Compound 339]	1 µg/mL (≈ 1.02 µM)	2 µg/mL (≈ 2.03 µM)	> 4 µg/mL	
CCCCCCCCCCNCCC(=O)N[C@@H](CCCCN)C(=O)N(C)[C@@H]1C(=O)N[C@@H](C)C(=O)N[C@H](C(=O)N[C@@H](C)C(C)=O)Cc2ccc(OC3O[C@H](CO)[C@@H](O)[C@H](O)[C@H]3N)c(c2)-c2cc1ccc2OC1O[C@H](CO)[C@@H](O)[C@H](O)[C@H]1N (stereo partly shown) [Compound 340]	2 µg/mL (≈ 1.75 µM)	> 4 µg/mL	> 4 µg/mL	

Reference: patent US10392422B2, “Macrocyclic broad spectrum antibiotics” (priority 2014, dated 2019)
